Assay results from ChEMBL document CHEMBL5518215, “Unlocking Antibacterial Potential: Key-Site-Based Regulation of Antibacterial Spectrum of Peptides” (J Med Chem, 2024).

Assays:
[1] = test system: Salmonella typhimurium; test: Antimicrobial activity against Salmonella typhimurium 14028 assessed as bacterial killing measured after 16 hrs incubation; format: functional, Salmonella enterica subsp. enterica serovar Typhimurium; settings: Salmonella enterica
[2] = Cytotoxicity against porcine IPEC-J2 cells assessed as cell survival rate measured after 8 hrs by MTT assay; format: toxicity, cell-based, Sus scrofa; settings: pig
[3] = test system: Escherichia coli; test: Antimicrobial activity against Escherichia coli 25922 assessed as absence bacterial growth measured after 18 to 24 hrs incubation in presence of 25% serum by NCCLS method; format: functional; settings: time 18-24 hrs
[4] = test system: Bacillus cereus; test: Antimicrobial activity against Bacillus cereus 1.932 assessed as bacterial killing measured after 16 hrs incubation; format: functional
[5] = test system: Staphylococcus aureus; test: Antimicrobial activity against Methicillin-resistant Staphylococcus aureus 43300 assessed as absence bacterial growth measured after 18 to 24 hrs incubation by NCCLS method; format: functional; settings: time 18-24 hrs
[6] = test system: Escherichia coli; test: Antimicrobial activity against Escherichia coli K88 assessed as absence bacterial growth measured after 18 to 24 hrs incubation by NCCLS method; format: functional; settings: time 18-24 hrs
[7] = test system: Escherichia coli; test: Antimicrobial activity against Escherichia coli 25922 assessed as absence bacterial growth measured after 18 to 24 hrs incubation in presence of KCl by NCCLS method; format: functional; settings: time 18-24 hrs
[8] = Antimicrobial activity against Salmonella pullorum C7913 assessed as absence bacterial growth measured after 18 to 24 hrs incubation by NCCLS method; format: functional, Salmonella enterica subsp. enterica serovar Pullorum; settings: Salmonella enterica, time 18-24 hrs
[9] = test system: Escherichia coli; test: Antimicrobial activity against Escherichia coli 25922 assessed as absence bacterial growth measured after 18 to 24 hrs incubation in presence of MgCl2 by NCCLS method; format: functional; settings: time 18-24 hrs
[10] = test system: Pseudomonas aeruginosa; test: Antimicrobial activity against Pseudomonas aeruginosa 27853 assessed as bacterial killing measured after 16 hrs incubation; format: functional
[11] = test system: Staphylococcus aureus; test: Antimicrobial activity against Staphylococcus aureus 29213 assessed as absence bacterial growth measured after 18 to 24 hrs incubation by NCCLS m; format: functional; settings: time 18-24 hrs
[12] = test system: Staphylococcus aureus; test: Antimicrobial activity against Methicillin-resistant Staphylococcus aureus 43300 assessed as bacterial killing measured after 16 hrs incubation; format: functional
[13] = test system: Escherichia coli; test: Antimicrobial activity against Escherichia coli 25922 assessed as absence bacterial growth measured after 18 to 24 hrs incubation in presence of NH4Cl by NCCLS method; format: functional; settings: time 18-24 hrs
[14] = test system: Erythrocyte; test: Hemolytic activity in human RBC at effective concentration measured after 1 hr by microplate reader analysis; format: toxicity, cell-based
[15] = test system: Staphylococcus aureus; test: Antimicrobial activity against Staphylococcus aureus 29213 assessed as absence bacterial growth measured after 18 to 24 hrs incubation by NCCLS method; format: functional; settings: time 18-24 hrs
[16] = Hemolytic activity in human RBC at effective concentration at 128 uM measured after 1 hr by microplate reader relative to control; format: toxicity, cell-based, Erythrocyte; settings: human red blood cells (erythrocytes), read-out: Activity
[17] = test system: Staphylococcus epidermidis; test: Antimicrobial activity against Staphylococcus epidermidis 12228 assessed as bacterial killing measured after 16 hrs incubation; format: functional
[18] = test system: Escherichia coli; test: Antimicrobial activity against Escherichia coli 25922 assessed as absence bacterial growth measured after 18 to 24 hrs incubation in presence of 50% serum by NCCLS method; format: functional; settings: time 18-24 hrs
[19] = test system: Pseudomonas aeruginosa; test: Antimicrobial activity against Pseudomonas aeruginosa 27853 assessed as absence bacterial growth measured after 18 to 24 hrs incubation by NCCLS method; format: functional; settings: time 18-24 hrs
[20] = test system: Escherichia coli; test: Antimicrobial activity against Escherichia coli 25922 assessed as absence bacterial growth measured after 18 to 24 hrs incubation in presence of FeCl3 by NCCLS method; format: functional; settings: time 18-24 hrs
[21] = test system: Escherichia coli; test: Antimicrobial activity against Escherichia coli 25922 assessed as absence bacterial growth measured after 18 to 24 hrs incubation in presence of ZnCl2 by NCCLS method; format: functional; settings: time 18-24 hrs
[22] = test system: Enterococcus faecalis; test: Antimicrobial activity against Enterococcus faecalis 29212 assessed as bacterial killing measured after 16 hrs incubation; format: functional
[23] = Cytotoxicity against porcine IPEC-J2 cells assessed as cell survival rate at 64 uM measured after 8 hrs by MTT assay relative to control; format: toxicity, cell-based, Sus scrofa; settings: pig, read-out: Activity
[24] = test system: Salmonella typhimurium; test: Antimicrobial activity against Salmonella typhimurium C7731 assessed as bacterial killing measured after 16 hrs incubation; format: functional, Salmonella enterica subsp. enterica serovar Typhimurium; settings: Salmonella enterica
[25] = test system: Salmonella typhimurium; test: Antimicrobial activity against Salmonella typhimurium 14028 assessed as absence bacterial growth measured after 18 to 24 hrs incubation by NCCLS method; format: functional, Salmonella enterica subsp. enterica serovar Typhimurium; settings: Salmonella enterica, time 18-24 hrs
[26] = Cytotoxicity against human HEK-293T cells assessed as cell survival rate at 64 uM measured after 8 hrs by MTT assay relative to control; format: toxicity, cell-based; settings: read-out: Activity
[27] = test system: Escherichia coli; test: Antimicrobial activity against Escherichia coli 25922 assessed as absence bacterial growth measured after 18 to 24 hrs incubation by NCCLS method; format: functional; settings: time 18-24 hrs
[28] = test system: Staphylococcus aureus; test: Antimicrobial activity against Staphylococcus aureus 25923 assessed as bacterial killing measured after 16 hrs incubation; format: functional
[29] = test system: Listeria monocytogenes; test: Antimicrobial activity against Listeria monocytogenes 1.10753 assessed as absence bacterial growth measured after 18 to 24 hrs incubation by NCCLS method; format: functional; settings: time 18-24 hrs
[30] = test system: Listeria monocytogenes; test: Antimicrobial activity against Listeria monocytogenes 1.10753 assessed as bacterial killing measured after 16 hrs incubation; format: functional
[31] = test system: Escherichia coli; test: Antimicrobial activity against Escherichia coli K88 assessed as bacterial killing measured after 16 hrs incubation; format: functional
[32] = test system: Bacillus cereus; test: Antimicrobial activity against Bacillus cereus 1.932 assessed as absence bacterial growth measured after 18 to 24 hrs incubation by NCCLS method; format: functional; settings: time 18-24 hrs
[33] = test system: Staphylococcus aureus; test: Antimicrobial activity against Staphylococcus aureus 29213 assessed as bacterial killing measured after 16 hrs incubation; format: functional
[34] = test system: Acinetobacter baumannii; test: Antimicrobial activity against Acinetobacter baumannii 1.6769 assessed as bacterial killing measured after 16 hrs incubation; format: functional
[35] = test system: Acinetobacter baumannii; test: Antimicrobial activity against Acinetobacter baumannii 1.6769 assessed as absence bacterial growth measured after 18 to 24 hrs incubation by NCCLS method; format: functional; settings: time 18-24 hrs
[36] = Cytotoxicity against human HEK-293T cells assessed as cell survival rate measured after 8 hrs by MTT assay; format: toxicity, cell-based
[37] = test system: Salmonella typhimurium; test: Antimicrobial activity against Salmonella typhimurium C7731 assessed as absence bacterial growth measured after 18 to 24 hrs incubation by NCCLS method; format: functional, Salmonella enterica subsp. enterica serovar Typhimurium; settings: Salmonella enterica, time 18-24 hrs
[38] = test system: Escherichia coli; test: Antimicrobial activity against Escherichia coli 25922 assessed as absence bacterial growth measured after 18 to 24 hrs incubation in presence of NaCl by NCCLS method; format: functional; settings: time 18-24 hrs
[39] = test system: Escherichia coli; test: Antimicrobial activity against Escherichia coli 25922 assessed as bacterial killing measured after 16 hrs incubation; format: functional
[40] = test system: Staphylococcus epidermidis; test: Antimicrobial activity against Staphylococcus epidermidis 12228 assessed as absence bacterial growth measured after 18 to 24 hrs incubation by NCCLS method; format: functional; settings: time 18-24 hrs
[41] = Cytotoxicity against mouse RAW264.7 cells assessed as cell survival rate measured after 8 hrs by MTT assay; format: toxicity, cell-based
[42] = Cytotoxicity against mouse RAW264.7 cells assessed as cell survival rate at 32 to 64 uM measured after 8 hrs by MTT assay relative to control; format: toxicity, cell-based; settings: dose 32-64 µM, read-out: Activity
[43] = test system: Escherichia coli; test: Antimicrobial activity against Escherichia coli 25922 assessed as absence bacterial growth measured after 18 to 24 hrs incubation in presence of 12.5% serum by NCCLS method; format: functional; settings: time 18-24 hrs
[44] = test system: Enterococcus faecalis; test: Antimicrobial activity against Enterococcus faecalis 29212 assessed as absence bacterial growth measured after 18 to 24 hrs incubation by NCCLS method; format: functional; settings: time 18-24 hrs
[45] = Antimicrobial activity against Salmonella pullorum C7913 assessed as bacterial killing measured after 16 hrs incubation; format: functional, Salmonella enterica subsp. enterica serovar Pullorum; settings: Salmonella enterica

H-GKLWLKGGKLWLKGAKLWLKG-NH2
2 µM: MIC [5] | MIC [7] | MIC [13] | MIC [20] | MIC [21] | MIC [27] | MBC [34] | MIC [35] | MBC [39] | MBC [45]
32 µM: MIC [43]
16 µM: MIC [38]
8 µM: MIC [9] | MBC [10] | MBC [24]
4 µM: MBC [1] | MBC [4] | MIC [11] | MBC [12] | MIC [15] | MBC [17] | MIC [19] | MBC [22] | MIC [25] | MBC [28] | MIC [32] | MBC [33] | MIC [37] | MIC [40] | MIC [44]
1 µM: MIC [6] | MIC [8] | MBC [31]
> 32 µM: MIC [3] | MIC [18] | MIC [29] | MBC [30]
> 80%: viability at 8 h, 64 µM [23] | viability at 8 h, 64 µM [26]
< 10%: hemolysis at 1 h, 128 µM [16]
> 64 µM: IC50 at 8 h [2] | IC50 at 8 h [36] | IC50 at 8 h [41]
60%: viability at 8 h, up to 64 µM [42]
> 128 µM: HC10 [14]

H-GKLWLKGGKLWLKGGKLWLKG-NH2
2 µM: MIC [25] | MBC [31] | MBC [45]
8 µM: MIC [19] | MBC [24] | MBC [34] | MIC [35] | MBC [39]
1 µM: MIC [6] | MIC [8]
4 µM: MBC [1] | MIC [7] | MIC [13] | MIC [20] | MIC [21] | MIC [27] | MIC [37]
> 64 µM: IC50 at 8 h [2] | IC50 at 8 h [36] | IC50 at 8 h [41]
> 32 µM: MIC [3] | MBC [4] | MIC [5] | MIC [11] | MBC [12] | MIC [15] | MBC [17] | MIC [18] | MBC [22] | MBC [28] | MIC [29] | MBC [30] | MIC [32] | MBC [33] | MIC [38] | MIC [40] | MIC [43] | MIC [44]
> 128 µM: HC10 [14]
16 µM: MIC [9] | MBC [10]
< 10%: hemolysis at 1 h, 128 µM [16]
> 80%: viability at 8 h, 64 µM [23] | viability at 8 h, 64 µM [26]
